Values of other authors, collected in patent publication EP0424512B1, “ANTIMETASTATIC PEPTIDES” (SRI INTERNATIONAL, priority 1989, dated 1990).

Tested on: human fibrosarcoma HT-1080 and Chinese hamster ovary cells
Details: relative to laminin

## CDPGYIGSR [nine amino acid peptide from domain III of laminin B₁ chain]
  activity of laminin in cell attachment on a molar basis: 0.5-1%
